Results on twelve compounds are retold here after article PMC4393083, “Antiviral Activity and Possible Mechanism of Action of Constituents Identified in Paeonia lactiflora Root toward Human Rhinoviruses” (PLoS ONE, 2015).

Read-outs that look alike come from different tables or passages of the source.

The test system of one data set is HRV. To be noted: read-out: IC50 (anti-HRV); cited from earlier work.
The nature of data set [1]: Cytotoxicity MTT assay in HeLa cells. It is filed as cell-based. To be noted: human, tetrazolium assay, read-out: CC50 (95% CL). Here is the method:
(§1) The cytotoxicity of the test materials to two human cell lines was evaluated using an MTT assay described previously by Morgan. In brief, a 10× stock solution of MTT was prepared by adding 5 mg/mL MTT in phosphate-buffered saline (PBS) (pH 7.4). The stock solution was sterile-filtered and stored at −20°C. HeLa and MRC5 cells were seeded onto 96-well culture plates at a density of 3 × 10^4 cells per well for 1 day. The culture medium was removed and the plates with monolayer cells were replaced with media containing several different concentrations (1–1000 μg/mL) of the test materials in dimethylsulfoxide (DMSO). After incubation at 37°C and 5% CO2 for 2 days, the culture plates were then washed once with 200 μL PBS. A volume of 100 μL medium containing 0.05% MTT were added to each well and then incubated for 4 h at the same condition. After then, MTT solution was removed and 150 μL DMSO was added to each well. Finally, the plate was shaken for 15 min to dissolve the purple formazan crystals that had formed. Absorbance was read at 560 nm by using a VersaMax microplate reader (Molecular Devices, Sunnyvale, CA) with a reference absorbance at 670 nm.
(§2) The CC50 and IC50 values were determined using GraphPad Prism 5 software program (GraphPad Software, La Jolla, CA). […] The selectivity index (SI) was determined as the ratio of CC50 to IC50 [23]. All data represent the mean ± SD of duplicate or triplicate samples of three independent experiments. […] Data from two groups were analyzed by a Student’s t-test, and multiple groups were analyzed by a one-way analysis of variance and Bonferroni multiple comparison post-test.
For orientation: Tetrazolium dyes change colour on reduction, which living cells bring about.

A short description of data set [2]: Cytotoxicity MTT assay in MRC5 cells. The data set is classed as cell-based, human. The following applies: human, tetrazolium assay, read-out: CC50 (95% CL). Here is the method: as §1, §2
In the next data set the test system is MRC5 cells. The experiment in a line: Cytotoxicity MTT assay in MRC5 cells. It is filed as cell-based, human. How it is done: as §1, §2
Data set [3] deals with HRV-2. The experiment in a line: Cytopathic effect inhibition assay (MTT), HRV-2 in HeLa cells. The data set is classed as cell-based, human rhinovirus. To be noted: read-out: IC50 (95% CL) HRV-2. Here is the method:
(§3) Monolayers of HeLa and MRC5 cells were seeded onto a 96-well culture plate as stated previously. Subsequently, 90 μL media containing several different concentrations (1–1000 μg/mL) of each test material in DMSO was put into the wells, and then 10 μL of 10×TCID50 of the virus stock was added to produce an appropriate CPE within 2 days after infection. Ribavirin served as a reference control and was similarly prepared. Negative controls consisted of the DMSO solution. Viral inhibition rate (VIR) (%) was calculated according to the formula [21], VIR = (A tV—A cV)/(A cd—A cV) × 100, where A tV is the optical density measured with a given concentration of the test compound in HRV infected cells; A cV is the optical density measured for the control untreated HRV infected cells; A cd is the optical density measured for the control untreated HRV uninfected cells.
(§4) The CC50 and IC50 values were determined using GraphPad Prism 5 software program (GraphPad Software, La Jolla, CA). […] The selectivity index (SI) was determined as the ratio of CC50 to IC50 [23]. All data represent the mean ± SD of duplicate or triplicate samples of three independent experiments. Statistical analyses were carried out using SAS 9.13 program (SAS Institute, Cary, NC). Data from two groups were analyzed by a Student’s t-test, and multiple groups were analyzed by a one-way analysis of variance and Bonferroni multiple comparison post-test.
(In general: Protection from cytopathic effect is a common read-out in antiviral testing.)

Data set [4] has as its system HRV-4. The experiment in a line: Cytopathic effect inhibition assay (MTT), HRV-4 in HeLa cells. It is filed as cell-based, human rhinovirus. The following applies: Human rhinovirus sp., HRV4, HeLa, read-out: IC50 (95% CL) HRV-4. Here is the method:
Extraction procedures of air-dried root of P. lactiflora were performed as described previously by Ngan et al.. For isolation of active principles, viral CPE inhibition assay toward HRV-4 in HeLa cell was used. […]. Column fractions were monitored by TLC on silica gel plates developed with chloroform and methanol (7:3 by volume) mobile phase. Fractions with similar R f values on the TLC plates were pooled. Active fractions 4 to 5 (EI, 2.44 g) and 7 (EII, 0.569 g) were obtained. The active fraction EI was rechromatographed on a silica gel column by elution with chloroform and methanol (70:30 by volume) to give nine fractions (each about 450 mL). A preparative HPLC was used for separation of constituents from the active fractions 3 to 5 (0.176 g). The column was a 4.6 mm i.d. × 150 mm Eclipse XDB-C18 (Agilent, Santa Clara, CA) using a mobile phase of methanol and water (3:7 by volume) at a flow rate of 0.5 mL/min. Chromatographic separations were monitored using a UV detector at 260 nm. […]. The three antiviral principles were characterized as paeonol (PA) (1), gallic acid (GA) (2), and 1,2,3,4,6-penta-O-galloyl-β-D-glucopyranose (PGG) (3) (Fig 1) by spectroscopic analyses, including MS and NMR. PA (1): compound 1 was isolated as an antibacterial principle from P. lactiflora root in our previous work, and the spectral data of compound 1 was largely identical to the published data. GA (2) was identified on the basis of the following evidence: white powder. UV (MeOH): λmax nm = 260. FT-IR: v max cm^–1 = 3491–3063 (OH stretch), 1608 (aromatic C = C). […] The interpretations of proton and carbon signals of compound 2 were largely consistent with those of Sakar et al.. PGG (3): compound 3 was isolated as an antibacterial principle from P. lactiflora root in our previous work, and the spectral data of compound 3 was largely identical to the published data.
as §3, §4

In data set [5] the test system is HRV-2. The experiment in a line: Cytopathic effect inhibition assay (MTT), HRV-2 in MRC5 cells. It is filed as cell-based, human rhinovirus. To be noted: HRV-2 in MRC5 cells. Here is the method: as §3, §4
In data set [6] the test system is HRV-4. Put plainly: Cytopathic effect inhibition assay (MTT), HRV-4 in MRC5 cells. It is filed as cell-based, human rhinovirus. To be noted: HRV-4 in MRC5 cells. Here is the method: as §3, §4
Data set [7] relates to two HRVs (HRV-2 and HRV-4). Put plainly: Cytopathic effect inhibition assay, summary over both serotypes. The data set is classed as cell-based, human rhinovirus. To be noted: Rhinovirus A; range over HRV-2 and HRV-4, HeLa and MRC5 cells; read-out: IC50 toward two HRVs (range). How it is done: as §3, §4

One may read the IC50 as the concentration that inhibits the measured activity by half. On to (S)-ribalinine, for which the IC50 in the data set on HRV was 83 µM.
Regarding `COc1cc2c(c(O)c1OC)c(=O)c1ccccc1n2C` [arborinine], in the data set with HRV, the concentration for half-maximal inhibition (IC50) is 3.19 µM.
As to `C[C@@H]1CC[C@]2(C(=O)O)CC[C@]3(C)C(=CC[C@@H]4[C@@]5(C)C[C@@H](O)[C@H](OC(=O)/C=C/c6ccc(O)c(O)c6)C(C)(C)[C@@H]5CC[C@]43C)[C@@H]2[C@]1(C)O` (relative stereo) [3-O-trans-caffeoyltormentic acid], the 50% inhibitory concentration (IC50) in the data set on HRV was 30.7 µM.
By CC50 is commonly meant the concentration giving 50% cytotoxicity. For the compound `O=C(O)c1cc(O)c(O)c(O)c1` [GA, gallic acid], the half-maximal cytotoxic concentration (CC50) at 2 days in data set [1] was found to be 1500 µM; in [2], 218 µM. Besides, the “concentration toxic to cells” value in the data set with MRC5 cells was ≥ 290 µM. Further, the 50% inhibitory concentration (IC50) was 427 µM with HRV-2 [3] (Rhinovirus A, HRV2, HeLa); 427 µM in the data set with HRV-2 [3]; 448 µM in the data set on HRV-4 [4]; 427 to 448 µM in data set [7]; ~295 µM with HRV. The “IC50 (95% CL) HRV-2” value in the data set on HRV-2 [5] is listed as “ineffective”. The “IC50 (95% CL) HRV-4” value in the data set with HRV-4 [6] is reported as “ineffective”.
Consider `COc1cc2ccc(=O)oc2c(OC)c1OC` [6,7,8-trimethoxycoumarin], for which the concentration for half-maximal inhibition (IC50) in the data set with HRV is 12 µM.
Take `COc1cc(O)c2c(=O)c(OC)c(-c3ccc(O)c(OC)c3)oc2c1` [4ʹ,5-dihydroxy-3ʹ,3,7-trimethoxyflavone]: the half-maximal inhibitory concentration (IC50) in the data set with HRV is 0.29 µM.
Turning to `COc1cc2cc(Oc3ccc4ccc(=O)oc4c3)c(=O)oc2cc1OC` [daphnoretin methyl ether], in the data set with HRV, the concentration for half-maximal inhibition (IC50) was 97.1 µM.
On to `C=C1CC[C@@H](O)C(C)(C)C1CC/C(C)=C/COc1ccc2ccc(=O)oc2c1` (stereo partly drawn) [farnesiferol B], for which, in the data set on HRV, the IC50 is ~2.61 µM.
As for `O=c1c(-c2ccc(O)c(O)c2)coc2cc(O[C@@H]3O[C@H](CO)[C@@H](O)[C@H](O)[C@H]3O)cc(O)c12` [orobol 7-O-D-glucoside], the IC50 in the data set with HRV is 1.29 to 19.6 µM.
As for `COc1cc2c(cc1OC)-c1c(OC)c(OC)cc3c1[C@H](C2)N(C)CC3` [glaucine], the half-maximal inhibitory concentration (IC50) in the data set with HRV is 22 µM.
Consider `C/C(=C\COc1ccc2ccc(=O)oc2c1)CC[C@@H]1C(C)(C)[C@H]2CC[C@]1(C)O2` [farnesiferol C], for which, in the data set on HRV, the concentration for half-maximal inhibition (IC50) was ~2.61 µM.
On to `C=C1CCC2CC(C(=C)C)C2(C)CCC(C(=C)C(=O)O)CC1CC=C(C)C` (stereo not drawn) [raoulic acid], for which the half-inhibitory concentration (IC50) with HRV was 0.51 µM.
